Several values for one entry are separate records, joined by “and”; a condition that tells them apart may be missing. Equal entries are not always repeated. ± gives the expanded uncertainty stated by the source.
Experiments:
[1] = 101 kPa, Liquid; for viscosity: Capillary tube (Ostwald / Ubbelohde) method; for mass density: Vibrating tube method
[2] = xn = mol fraction of the nth substance listed; details: 101 kPa, Liquid; for viscosity: Capillary tube (Ostwald / Ubbelohde) method; for mass density: Vibrating tube method

| SMILES | viscosity ([1]; 298.15 K) [mPa·s] | mass density ([1]; 298.15 K) [kg/m3] | viscosity ([1]; 303.15 K) [mPa·s] | mass density ([1]; 303.15 K) [kg/m3] | viscosity ([1]; 308.15 K) [mPa·s] | mass density ([1]; 308.15 K) | viscosity ([1]; 313.15 K) [mPa·s] | mass density ([1]; 313.15 K) [kg/m3] | viscosity ([1]; 323.15 K) [mPa·s] | mass density ([1]; 323.15 K) [kg/m3] | other results |
| --- | --- | --- | --- | --- | --- | --- | --- | --- | --- | --- | --- |
| CN1CCNCC1 [N-methylpiperazine] | 1.854 ± 0.024 | 899.28 ± 0.13 | 1.583 ± 0.02 | 894.9 ± 0.13 | 1.409 ± 0.017 | 890.5 ± 0.13 kg/m3 | 1.258 ± 0.015 | 886.07 ± 0.13 | 1.064 ± 0.013 | 877.28 ± 0.13 |  |
| C1C[C@@H]2[C@H]3CC[C@H](C3)[C@@H]2C1 [exo-tetrahydrodicyclopentadiene] | 2.8 ± 0.043 | 931.29 ± 0.76 | 2.549 ± 0.039 | 927.38 ± 0.75 | 2.332 ± 0.036 | 923.45 ± 0.75 kg/m3 and 923.46 ± 0.75 kg/m3 | 2.124 ± 0.033 | 919.54 ± 0.75 | 1.811 ± 0.028 | 911.7 ± 0.74 |  |
| C1C[C@@H]2[C@H]3CC[C@H](C3)[C@@H]2C1 [exo-tetrahydrodicyclopentadiene] + CN1CCNCC1 |  |  |  |  |  |  |  |  |  |  | viscosity ([2]; 298.15 K, x2 = 0): 2.8 ± 0.043 mPa·s; mass density ([2]; 298.15 K, x2 = 0): 931.29 ± 0.76 kg/m3; viscosity ([2]; 303.15 K, x2 = 0): 2.549 ± 0.039 mPa·s; mass density ([2]; 303.15 K, x2 = 0): 927.38 ± 0.75 kg/m3; viscosity ([2]; 308.15 K, x2 = 0): 2.332 ± 0.036 mPa·s; mass density ([2]; 308.15 K, x2 = 0): 923.45 ± 0.75 kg/m3; viscosity ([2]; 313.15 K, x2 = 0): 2.124 ± 0.033 mPa·s; mass density ([2]; 313.15 K, x2 = 0): 919.54 ± 0.75 kg/m3; viscosity ([2]; 323.15 K, x2 = 0): 1.811 ± 0.028 mPa·s; mass density ([2]; 323.15 K, x2 = 0): 911.7 ± 0.74 kg/m3 |
| CCN(CC)CC [triethylamine] | 0.366 ± 0.005 | 724.21 ± 0.25 | 0.34 ± 0.005 | 719.54 ± 0.25 | 0.334 ± 0.004 | 714.84 ± 0.25 kg/m3 | 0.331 ± 0.004 | 710.1 ± 0.25 | 0.298 ± 0.004 | 700.71 ± 0.25 |  |
| CCN(CC)CC [triethylamine] + C1C[C@@H]2[C@H]3CC[C@H](C3)[C@@H]2C1 |  |  |  |  |  |  |  |  |  |  | viscosity ([2]; 298.15 K, x1 = 1): 0.366 ± 0.005 mPa·s; mass density ([2]; 298.15 K, x1 = 1): 724.21 ± 0.25 kg/m3; viscosity ([2]; 303.15 K, x1 = 1): 0.34 ± 0.005 mPa·s; mass density ([2]; 303.15 K, x1 = 1): 719.54 ± 0.25 kg/m3; viscosity ([2]; 308.15 K, x1 = 1): 0.334 ± 0.004 mPa·s; mass density ([2]; 308.15 K, x1 = 1): 714.84 ± 0.25 kg/m3; viscosity ([2]; 313.15 K, x1 = 1): 0.331 ± 0.004 mPa·s; mass density ([2]; 313.15 K, x1 = 1): 710.1 ± 0.25 kg/m3; viscosity ([2]; 323.15 K, x1 = 1): 0.298 ± 0.004 mPa·s; mass density ([2]; 323.15 K, x1 = 1): 700.71 ± 0.25 kg/m3 |
